The text below walks through data of ChEMBL document CHEMBL1134947, “A mechanism-based probe for gp120-Hydrolyzing antibodies” (Bioorg Med Chem Lett, 2002).

Square brackets hold non-standard residues; d marks the D form. Peptide text beside a SMILES is read from it. * marks the point of attachment. X2 = N=C(N)c1ccc(C(N*)P(=O)(Oc2ccccc2)Oc2ccccc2)cc1; X1 = O=C(CCCCC1SCC2NC(=O)NC21)NCCNC(=O)CCS*; Mpa = O=C(O)CCS

The target in the experiment is T1, Serine protease 1 (Bos taurus, UniProt P00760).
T1 sequence (P00760 whole entry): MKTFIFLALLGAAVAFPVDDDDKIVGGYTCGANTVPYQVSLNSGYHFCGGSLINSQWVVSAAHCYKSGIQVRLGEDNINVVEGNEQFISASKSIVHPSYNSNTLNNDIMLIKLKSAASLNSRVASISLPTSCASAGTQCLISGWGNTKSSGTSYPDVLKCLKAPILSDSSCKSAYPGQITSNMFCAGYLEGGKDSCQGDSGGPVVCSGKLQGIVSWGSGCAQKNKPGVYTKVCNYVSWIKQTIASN
As to the kind of experiment: Concentration required for the inhibition of catalytic activity of bovine trypsin.

As a reminder, the IC50 is the midpoint of a concentration-inhibition curve. The low end stands for greater potency, the high end for weaker potency. Turning to `N=C(N)c1ccc(C(NC(=O)CCSSCCC(=O)NCCNC(=O)CCCCC2SCC3NC(=O)NC32)P(=O)(Oc2ccccc2)Oc2ccccc2)cc1` (configuration not stated), half-maximal inhibition (IC50) was put at 31 µM. That is a double-digit micromolar value.
`CC[C@H](C)[C@H](NC(=O)[C@H](CCC(N)=O)NC(=O)[C@H](CCCCN)NC(=O)CCSSCCC(=O)NCCNC(=O)CCCCC1SCC2NC(=O)NC21)C(=O)N[C@H](C(=O)N[C@@H](CC(N)=O)C(=O)N[C@@H](CCSC)C(=O)N[C@@H](Cc1c[nH]c2ccccc12)C(=O)N[C@@H](CCC(N)=O)C(=O)N[C@@H](CCC(=O)O)C(=O)N[C@H](C(=O)NCC(=O)NC(c1ccc(C(=N)N)cc1)P(=O)(Oc1ccccc1)Oc1ccccc1)C(C)C)[C@@H](C)CC` (some centres not stated) ([Mpa](X1)KQIINMWQEVG-X2): half-maximal inhibition (IC50) was put at 30 µM.
